From ChEMBL document CHEMBL5653615 (J Biol Chem, 2013)

How the values were obtained:
[1] = target: T1, Serine/threonine-protein kinase TAO3 (Homo sapiens) (UniProt Q9H2K8); assay: Inhibition of human JIK at 18.6 nM by HotSpot assay relative to control
T1 sequence (whole entry): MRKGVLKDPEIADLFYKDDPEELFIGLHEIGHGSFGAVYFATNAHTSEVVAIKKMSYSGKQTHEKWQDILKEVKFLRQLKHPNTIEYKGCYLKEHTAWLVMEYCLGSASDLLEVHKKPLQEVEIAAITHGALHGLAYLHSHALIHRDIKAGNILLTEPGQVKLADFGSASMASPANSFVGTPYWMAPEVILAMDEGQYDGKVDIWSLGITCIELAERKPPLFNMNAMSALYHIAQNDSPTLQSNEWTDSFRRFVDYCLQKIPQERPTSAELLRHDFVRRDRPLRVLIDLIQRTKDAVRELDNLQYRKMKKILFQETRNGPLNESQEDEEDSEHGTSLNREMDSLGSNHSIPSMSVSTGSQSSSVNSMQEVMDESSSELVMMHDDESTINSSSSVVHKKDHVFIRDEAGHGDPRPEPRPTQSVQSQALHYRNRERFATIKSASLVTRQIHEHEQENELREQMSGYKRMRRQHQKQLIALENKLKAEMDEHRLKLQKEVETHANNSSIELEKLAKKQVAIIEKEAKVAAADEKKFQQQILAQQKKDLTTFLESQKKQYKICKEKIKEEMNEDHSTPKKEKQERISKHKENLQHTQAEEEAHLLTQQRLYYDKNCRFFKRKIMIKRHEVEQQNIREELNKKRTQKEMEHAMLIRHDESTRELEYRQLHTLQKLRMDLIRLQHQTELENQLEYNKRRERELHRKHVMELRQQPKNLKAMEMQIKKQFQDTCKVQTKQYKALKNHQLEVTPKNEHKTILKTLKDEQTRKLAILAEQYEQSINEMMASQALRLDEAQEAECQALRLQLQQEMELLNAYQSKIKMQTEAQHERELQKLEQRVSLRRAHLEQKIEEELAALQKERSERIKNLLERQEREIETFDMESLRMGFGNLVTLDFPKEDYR

[2] = target: T2, Interleukin-1 receptor-associated kinase 4 (Homo sapiens) (UniProt Q9NWZ3); assay: Inhibition of human IRAK4 at 18.6 nM by HotSpot assay relative to control
T2 sequence (whole entry): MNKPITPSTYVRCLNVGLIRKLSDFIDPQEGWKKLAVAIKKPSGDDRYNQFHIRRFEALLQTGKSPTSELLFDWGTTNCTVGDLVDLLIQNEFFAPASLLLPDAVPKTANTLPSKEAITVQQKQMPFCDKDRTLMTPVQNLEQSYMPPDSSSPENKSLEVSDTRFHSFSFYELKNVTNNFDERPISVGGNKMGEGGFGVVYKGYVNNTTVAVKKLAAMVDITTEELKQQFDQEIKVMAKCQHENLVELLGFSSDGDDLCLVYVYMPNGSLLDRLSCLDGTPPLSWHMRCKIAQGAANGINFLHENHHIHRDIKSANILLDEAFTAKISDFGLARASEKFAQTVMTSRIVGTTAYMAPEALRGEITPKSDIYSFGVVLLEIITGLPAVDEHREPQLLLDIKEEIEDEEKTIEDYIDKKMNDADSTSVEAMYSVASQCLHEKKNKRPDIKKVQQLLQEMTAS

[3] = target: T3, Dual specificity mitogen-activated protein kinase kinase 6 (Homo sapiens) (UniProt P52564); assay: Inhibition of human MKK6 at 1.82 nM by HotSpot assay relative to control
T3 sequence (whole entry): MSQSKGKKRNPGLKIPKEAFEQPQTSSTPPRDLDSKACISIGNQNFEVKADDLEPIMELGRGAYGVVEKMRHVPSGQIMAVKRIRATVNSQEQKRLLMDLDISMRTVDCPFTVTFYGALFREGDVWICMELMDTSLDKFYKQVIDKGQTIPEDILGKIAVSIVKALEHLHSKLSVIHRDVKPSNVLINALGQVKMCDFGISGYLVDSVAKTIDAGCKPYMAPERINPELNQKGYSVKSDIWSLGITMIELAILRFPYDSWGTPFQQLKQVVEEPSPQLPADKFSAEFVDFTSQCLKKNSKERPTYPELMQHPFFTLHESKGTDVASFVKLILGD

[4] = target: Protein-tyrosine kinase 6 (Homo sapiens) (UniProt Q13882); assay: Inhibition of human BRK at 1.82 nM by HotSpot assay relative to control
Chain of Protein-tyrosine kinase 6 (Homo sapiens) (Q13882 whole entry, looked up): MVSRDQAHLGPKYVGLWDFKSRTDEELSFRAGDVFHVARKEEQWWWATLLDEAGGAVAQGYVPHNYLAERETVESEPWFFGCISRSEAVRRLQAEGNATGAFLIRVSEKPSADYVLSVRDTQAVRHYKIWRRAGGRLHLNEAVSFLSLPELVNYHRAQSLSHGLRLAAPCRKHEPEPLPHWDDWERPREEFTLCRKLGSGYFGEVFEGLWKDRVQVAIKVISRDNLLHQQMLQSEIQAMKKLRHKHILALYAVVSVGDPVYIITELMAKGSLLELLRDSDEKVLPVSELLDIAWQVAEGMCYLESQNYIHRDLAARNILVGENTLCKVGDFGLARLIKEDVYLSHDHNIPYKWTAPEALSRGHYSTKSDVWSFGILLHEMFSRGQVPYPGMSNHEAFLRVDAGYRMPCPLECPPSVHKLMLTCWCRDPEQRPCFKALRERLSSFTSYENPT

[5] = target: Serine/threonine-protein kinase PAK 1 (Homo sapiens) (UniProt Q13153); assay: Inhibition of human PAK1 at 1.82 nM by HotSpot assay relative to control
Chain of Serine/threonine-protein kinase PAK 1 (Homo sapiens) (Q13153 whole entry): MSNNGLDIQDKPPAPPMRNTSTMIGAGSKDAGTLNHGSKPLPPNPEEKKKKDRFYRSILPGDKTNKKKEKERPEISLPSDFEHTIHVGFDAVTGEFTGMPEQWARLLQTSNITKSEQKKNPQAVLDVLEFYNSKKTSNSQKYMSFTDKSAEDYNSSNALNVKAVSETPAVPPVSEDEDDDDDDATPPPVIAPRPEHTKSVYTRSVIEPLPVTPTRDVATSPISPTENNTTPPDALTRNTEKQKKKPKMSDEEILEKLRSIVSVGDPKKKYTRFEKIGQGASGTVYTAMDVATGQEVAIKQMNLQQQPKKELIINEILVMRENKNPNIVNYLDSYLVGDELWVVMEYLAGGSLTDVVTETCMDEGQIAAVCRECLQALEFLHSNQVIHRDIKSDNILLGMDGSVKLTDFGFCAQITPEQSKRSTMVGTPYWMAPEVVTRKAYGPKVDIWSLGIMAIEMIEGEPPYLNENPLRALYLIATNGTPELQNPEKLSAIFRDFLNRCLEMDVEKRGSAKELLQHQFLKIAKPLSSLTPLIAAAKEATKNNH

[6] = target: Death-associated protein kinase 3 (Homo sapiens) (UniProt O43293); assay: Inhibition of human DAPK3 at 1.82 nM by HotSpot assay relative to control
Chain of Death-associated protein kinase 3 (Homo sapiens) (O43293 whole entry, looked up): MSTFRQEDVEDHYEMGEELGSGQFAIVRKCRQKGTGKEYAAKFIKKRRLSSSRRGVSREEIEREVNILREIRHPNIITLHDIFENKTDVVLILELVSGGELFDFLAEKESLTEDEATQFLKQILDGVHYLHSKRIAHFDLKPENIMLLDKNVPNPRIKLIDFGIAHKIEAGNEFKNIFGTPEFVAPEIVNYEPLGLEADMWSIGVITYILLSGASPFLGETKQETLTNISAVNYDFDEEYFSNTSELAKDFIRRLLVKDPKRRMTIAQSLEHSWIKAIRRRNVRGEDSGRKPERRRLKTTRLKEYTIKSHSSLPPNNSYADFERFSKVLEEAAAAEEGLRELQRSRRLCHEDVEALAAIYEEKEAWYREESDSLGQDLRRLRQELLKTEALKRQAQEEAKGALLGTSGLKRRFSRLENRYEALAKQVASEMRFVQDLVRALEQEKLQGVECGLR

[7] = target: T4, Serine/threonine-protein kinase A-Raf (Homo sapiens) (UniProt P10398); assay: Inhibition of human ARAF at 1.82 nM by HotSpot assay relative to control
T4 sequence (whole entry): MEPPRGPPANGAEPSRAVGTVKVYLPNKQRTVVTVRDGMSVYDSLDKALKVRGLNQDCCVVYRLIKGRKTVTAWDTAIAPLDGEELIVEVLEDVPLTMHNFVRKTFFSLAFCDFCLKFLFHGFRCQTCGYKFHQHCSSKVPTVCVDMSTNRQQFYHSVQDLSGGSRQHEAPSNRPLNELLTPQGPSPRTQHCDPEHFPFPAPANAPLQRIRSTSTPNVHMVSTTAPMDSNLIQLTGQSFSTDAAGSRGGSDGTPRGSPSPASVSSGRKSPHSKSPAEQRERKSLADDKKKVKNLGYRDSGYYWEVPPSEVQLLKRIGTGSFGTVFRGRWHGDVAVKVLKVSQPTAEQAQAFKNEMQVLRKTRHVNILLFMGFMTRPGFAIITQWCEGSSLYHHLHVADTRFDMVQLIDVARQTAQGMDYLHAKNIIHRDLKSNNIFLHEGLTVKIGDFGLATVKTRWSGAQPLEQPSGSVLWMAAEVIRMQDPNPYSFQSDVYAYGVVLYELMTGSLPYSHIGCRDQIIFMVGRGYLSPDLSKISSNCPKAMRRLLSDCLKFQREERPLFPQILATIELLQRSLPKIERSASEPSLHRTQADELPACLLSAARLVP

Row | inhibition [1] [%] | inhibition [2] [%] | inhibition [3] [%] | inhibition [4] [%] | inhibition [5] [%] | inhibition [7] [%] | Structure (SMILES) | inhibition [6] [%]
1 | 4.89 | -2.53 |  |  |  |  | C[C@]1(O)C[C@@H](c2nc(-c3ccc4ccc(-c5ccccc5)nc4c3)c3c(N)nccn32)C1 | 
2 |  |  | 3.26 | 0.2 | 1.83 | 5.85 | C[C@@]1(C(=O)Nc2ccc(F)nc2)CCCN1c1nc(Nc2cc(C3CC3)n[nH]2)c2cccn2n1 | 10.5
